In article PMC3536784, “Structural Characterization of Pandoraea pnomenusa B-356 Biphenyl Dioxygenase Reveals Features of Potent Polychlorinated Biphenyl-Degrading Enzymes” (PLoS ONE, 2013):

Tests used:
[1] = biological target: T1, BPDOB356 (biphenyl dioxygenase, oxygenase component BphAE) (Comamonas testosteroni, UniProt Q46372); experiment: X-ray crystal structure of complex, […] Å; type: binding; conditions: biphenyl powder soaked into crystals 24 h, anaerobic; MES pH 6.0; alpha-subunit active site near Fe(II)
T1 construct: gene bphA; heterologously produced, purified anaerobically; heterohexamer (alpha-beta)3; Rieske [2Fe-2S] and mononuclear Fe(II); 18 N-terminal alpha residues disordered; with Biphenyl dioxygenase subunit beta

[2] = biological target: T1, BPDOB356 (biphenyl dioxygenase, oxygenase component BphAE); experiment: O2 consumption, Clark-type oxygen electrode; type: biochemical; conditions: apparent; air-saturated 50 mM MES pH 6.0; NADH 123 µM; BphG B356 and BphF LB400 as electron transfer partners; Fe(II) added; partly uncoupled; read-out: 2,2′-Dichlorobiphenyl / Km /
From the text: O2 consumption, Clark-type oxygen electrode on BPDOB356 (biphenyl dioxygenase, oxygenase component BphAE)

[3] = biological target: T2, BPDOB356 (biphenyl dioxygenase, oxygenase component BphAE) (Comamonas testosteroni, UniProt Q46372, M231T); experiment: O2 consumption, Clark-type oxygen electrode; conditions: read-out: 2,2′-Dichlorobiphenyl / Km /; apparent; air-saturated 50 mM MES pH 6.0; NADH 123 µM; BphG B356 and BphF LB400 as electron transfer partners; Fe(II) added; partly uncoupled
T2 construct: gene bphA

[4] = biological target: T3, BPDOB356 (biphenyl dioxygenase, oxygenase component BphAE) (Comamonas testosteroni, UniProt Q46372, M231A); experiment: O2 consumption, Clark-type oxygen electrode; conditions: read-out: 2,2′-Dichlorobiphenyl / Km /; apparent; air-saturated 50 mM MES pH 6.0; NADH 123 µM; BphG B356 and BphF LB400 as electron transfer partners; Fe(II) added; partly uncoupled
T3 construct: gene bphA
T3 sequence (Q46372 whole entry M231A): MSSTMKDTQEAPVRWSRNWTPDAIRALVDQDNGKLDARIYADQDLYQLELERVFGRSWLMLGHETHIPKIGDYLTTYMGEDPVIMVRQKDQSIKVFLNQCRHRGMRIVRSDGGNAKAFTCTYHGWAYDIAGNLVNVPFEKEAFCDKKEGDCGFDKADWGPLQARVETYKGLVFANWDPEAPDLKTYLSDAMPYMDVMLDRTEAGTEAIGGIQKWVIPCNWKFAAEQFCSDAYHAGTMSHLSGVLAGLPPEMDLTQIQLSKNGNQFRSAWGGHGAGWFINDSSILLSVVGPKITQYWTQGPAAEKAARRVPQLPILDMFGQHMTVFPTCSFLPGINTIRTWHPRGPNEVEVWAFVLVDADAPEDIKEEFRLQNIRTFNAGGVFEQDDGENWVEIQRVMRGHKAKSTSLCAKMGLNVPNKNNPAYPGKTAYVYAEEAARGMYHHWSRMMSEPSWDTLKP
T3 sequence (Q46373 whole entry partner): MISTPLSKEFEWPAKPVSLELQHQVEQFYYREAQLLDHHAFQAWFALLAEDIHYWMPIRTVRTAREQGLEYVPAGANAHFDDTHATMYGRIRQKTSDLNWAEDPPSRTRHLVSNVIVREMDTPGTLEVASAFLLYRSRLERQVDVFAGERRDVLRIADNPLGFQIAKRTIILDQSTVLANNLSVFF

T1 sequence (Q46372 whole entry): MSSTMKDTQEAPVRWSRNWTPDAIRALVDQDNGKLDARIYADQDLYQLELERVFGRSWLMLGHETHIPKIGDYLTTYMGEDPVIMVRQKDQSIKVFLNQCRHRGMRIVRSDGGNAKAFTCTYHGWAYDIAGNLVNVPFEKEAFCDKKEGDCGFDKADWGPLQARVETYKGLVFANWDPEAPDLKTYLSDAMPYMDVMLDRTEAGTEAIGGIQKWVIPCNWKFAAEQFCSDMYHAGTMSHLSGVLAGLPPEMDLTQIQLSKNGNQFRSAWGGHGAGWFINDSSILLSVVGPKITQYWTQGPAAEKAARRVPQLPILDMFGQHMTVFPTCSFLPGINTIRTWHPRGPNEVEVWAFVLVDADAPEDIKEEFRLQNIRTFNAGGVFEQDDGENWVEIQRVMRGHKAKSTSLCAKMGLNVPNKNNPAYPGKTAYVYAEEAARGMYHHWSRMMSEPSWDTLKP
T1 sequence (Q46373 whole entry partner): as the sequence (Q46373 whole entry partner) above
T2 sequence (Q46372 whole entry M231T): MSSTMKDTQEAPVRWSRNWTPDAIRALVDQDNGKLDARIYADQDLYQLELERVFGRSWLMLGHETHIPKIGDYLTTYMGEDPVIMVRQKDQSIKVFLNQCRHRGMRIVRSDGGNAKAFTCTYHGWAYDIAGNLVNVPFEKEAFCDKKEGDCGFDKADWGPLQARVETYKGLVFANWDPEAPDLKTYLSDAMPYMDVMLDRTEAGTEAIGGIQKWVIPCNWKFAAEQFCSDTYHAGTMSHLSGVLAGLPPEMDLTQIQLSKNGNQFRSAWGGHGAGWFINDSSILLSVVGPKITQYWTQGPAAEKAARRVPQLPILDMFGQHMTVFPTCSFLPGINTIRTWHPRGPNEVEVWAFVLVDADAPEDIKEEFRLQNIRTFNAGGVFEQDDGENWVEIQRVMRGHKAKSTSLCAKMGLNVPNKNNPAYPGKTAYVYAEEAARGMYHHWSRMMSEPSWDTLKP
T2 sequence (Q46373 whole entry partner): as the sequence (Q46373 whole entry partner) above

Compound: c1ccc(-c2ccccc2)cc1 [biphenyl]
- X-ray crystal structure of complex, 1.6 Å [1]: 3GZY (BPDOB356) and 3GZX (BPDOB356•biphenyl complex)

Compound: Clc1ccccc1-c1ccccc1Cl [2,2′-dichlorobiphenyl]
- Km [2]: 1.1 µM
- Km [3]: 6.4 µM
- Km [4]: 5.7 µM
